“Also recorded” adds a separate entry of the source.
Key:
rats [1] = conditions: positive control; ref Carlezon et al., 2006; Curzon et al., 2009; cited from earlier work
rats [2] = assay: Self-administration model; assay type: in vivo, male Sprague-Dawley rats; conditions: n=8
rats [3] = assay: Hot plate model; assay type: in vivo, male Sprague-Dawley rats; conditions: JT07/JT09 20 mg/kg p.o.; morphine 10 mg/kg i.p.; %MPE, 53.0 °C, cut-off 30 s
rats [4] = assay: Acetic acid-induced writhing model; assay type: in vivo, male Sprague-Dawley rats; conditions: test compound 20 mg/kg p.o.; morphine 10 mg/kg i.p.; Student's t-test, P<0.05
rats [5] = assay: Locomotor open field test; conditions: JT09 20 mg/kg p.o.; morphine 10 mg/kg i.p.
[6] = no reference given; cited from earlier work
[7] = no reference given, cited from earlier work
[8] = no reference given, cited from earlier work; remark: listed apart in the source

**Q.** With `COC(=O)[C@@H]1C[C@H](OC(C)=O)C(=O)[C@H]2[C@@]1(C)CC[C@H]1C(=O)O[C@H](c3ccoc3)C[C@]21C` [Salvinorin A] as the compound, how does the “depressant-like effects (in words)” value (rats [1]) read?
**A.** The value was “known depressant-like effects at high dose levels, such as dysphoria”.

**Q.** For `COC(=O)[C@H]1[C@@H](OC(=O)c2ccccc2)C[C@@H]2CC[C@H]1N2C` [cocaine], which “number of cocaine infusions / active lever presses over 7 days” value (rats [2]; cocaine 50ug/50ul bolus after JT09, nose poke, F(6,42)=4.6, P<0.0012) is on record?
**A.** Its value is “number of cocaine infusions increased over the 7 days; also recorded: number of cocaine active lever presses increased over the 7 days; also recorded: expected increase in the number of lever presses over the seven-day period”.

**Q.** And the “cocaine infusions / active lever presses on days 6 and 7” value (rats [2]; cocaine after JT09, Dunnett post hoc, P<0.05)?
**A.** The value was “significantly more infusion on days 6 and 7; also recorded: significantly more active lever presses on days 6 and 7”.

**Q.** With `CN1CC[C@]23c4c5ccc(O)c4O[C@H]2[C@@H](O)C=C[C@H]3[C@H]1C5` [morphine] as the compound, how does the “analgesic activity in hot plate model” value (rats [3]) read?
**A.** The value was “potent analgesic”.

**Q.** And the “potency/efficacy versus morphine in writhing (peripheral pain)” value (rats [4])?
**A.** Its value is “comparable analgesic activity”.

**Q.** What about the “sedation (in words)” value (rats [5]) of the same compound?
**A.** Its value is “highly sedative”.

**Q.** With D-Phe-D-Phe-D-Nle-D-Arg-NH2 [CR665] as the compound, how does the “efficacy in visceral and neuropathic pain (in words)” value [6] read?
**A.** The value was “has demonstrated efficacy in the treatment of visceral and neuropathic pain without the negative side-effects of centrally acting KOAs”.

**Q.** What about the “oral activity (in words)” value ([7]; background statement in abstract) of the same compound?
**A.** Its value is “inactive when administered orally”.

**Q.** And the “oral bioavailability (in words)” value [7]?
**A.** The value was “does not have significant oral bioavailability”.

**Q.** What about the “peripheral to central selectivity in analgesic models (in words)” value ([8]; i.v., background statement in abstract) of the same compound?
**A.** Its value is “high peripheral to central selectivity”.

**Q.** What about the peripheral-selectivity ([8]; peripheral versus central) of the same compound?
**A.** The peripheral-selectivity was 548 fold.
